Measurements taken from US7510843B2, “Use of a polypeptide for detecting, preventing or treating a pathological condition associated with a degenerative, neurological or autoimmune disease” (Biomerieux S.A., priority 1999, dated 2009).

Key:
[1] = Clinical monitoring of an MS patient after a treatment flash; type: in vivo, human; conditions: MS patient No. 2, progressive form, flash on D1 after attack; worsening signs at D60
From the text: (§1) Urines of this patient were collected during the progression of their disease. The patient was hospitalized on D0 for an attack.

[2] = system: GM2AP and Saposin B proteins in the urines; experiment: Elisa assay of GM2AP and Saposin B in the urine of an MS patient after a treatment flash; type: in vivo, human; conditions: MS patient No. 2, progressive form, up to 23 days; increase again, high at D60
From the text: as §1

With O=P1(N(CCCl)CCCl)NCCCO1 (centres unmarked) [Endoxan, cyclophosphamide] the “clinical effect of the flash” value [1] was “clinical improvement” and the “GM2AP and Saposin B concentrations in urine over time after the flash” value [2] was “decrease gradually over time”.
